Reference: patent US20110086759A1, “CHEMICAL COMPOUNDS” (SYNGENTA CROP PROTECTION, INC., priority 2007, published 2011)

Experiments:
Assay type in all cases: in vivo
[1] = tested on: Amaranthus retoflexus (AMARE); experiment: Post-emergence biological efficacy, glasshouse pot test; conditions: Amaranthus retroflexus, 312 h
Protocol: (§1) Seeds of Alopecurus myosuroides (ALOMY), Setaria faberi (SETFA), Echinochloa crus-galli (ECHCG), Solanum nigrum (SOLNI), Amaranthus retoflexus (AMARE) and Ipomea hederaceae (IPOHE) were sown in standard soil in pots. After cultivation for 8 days under controlled conditions in a glasshouse (at 24/16° C., day/night; 14 hours light; 65% humidity), the plants were sprayed with an aqueous spray solution derived from the formulation of the technical active ingredient in acetone/water (50:50) solution containing 0.5% Tween 20 (polyoxyethelyene sorbitan monolaurate, CAS RN 9005-64-5) to give a final dose of 1000 or 250 g/ha of test compound.
(§2) The test plants were then grown on under controlled conditions in a glasshouse (at 24/16° C., day/night; 14 hours light; 65% humidity) and watered twice daily. After 13 days the test was evaluated (100=total damage to plant; 0=no damage to plant).

[2] = tested on: Alopecurus myosuroides (ALOMY); experiment: as above; conditions: 312 h
Protocol: as §1, §2

Setaria faberi (SETFA) [3] = experiment: as above; conditions: 312 h
Protocol: as §1, §2

Solanum nigrum (SOLNI) [4] = experiment: as above; conditions: 312 h
Protocol: as §1, §2

[5] = tested on: Echinochloa crus-galli (ECHCG); experiment: as above; conditions: 312 h
Protocol: as §1, §2

[6] = tested on: Ipomea hederaceae (IPOHE); experiment: as above; conditions: Ipomoea hederacea, 312 h
Protocol: as §1, §2

[7] = tested on: Amaranthus retoflexus (AMARE); experiment: Pre-emergence biological efficacy, glasshouse pot test; conditions: Amaranthus retroflexus, 312 h
Protocol: as §1, with “one day” for “8 days”
(§3) The test plants were then grown under controlled conditions in the glasshouse (at 24/16° C., day/night; 14 hours light; 65% humidity) and watered twice daily. After 13 days the test was evaluated (100=total damage to plant; 0=no damage to plant).

[8] = tested on: Alopecurus myosuroides (ALOMY); experiment: as above; conditions: 312 h
Protocol: as §1, with “one day” for “8 days”
as §3

Setaria faberi (SETFA) [9] = experiment: as above; conditions: 312 h
Protocol: as §1, with “one day” for “8 days”
as §3

Solanum nigrum (SOLNI) [10] = experiment: as above; conditions: 312 h
Protocol: as §1, with “one day” for “8 days”
as §3

[11] = tested on: Echinochloa crus-galli (ECHCG); experiment: as above; conditions: 312 h
Protocol: as §1, with “one day” for “8 days”
as §3

[12] = tested on: Ipomea hederaceae (IPOHE); experiment: as above; conditions: Ipomoea hederacea, 312 h
Protocol: as §1, with “one day” for “8 days”
as §3

[13] = post-emergence, 1,000 g/ha, evaluated after 13 days (100=total damage; 0=no damage), read-out: Percentage damage caused to weed species, AMARE
[14] = post-emergence, 1,000 g/ha, evaluated after 13 days (100=total damage; 0=no damage), read-out: Percentage damage caused to weed species, ALOMY
[15] = post-emergence, 1,000 g/ha, evaluated after 13 days (100=total damage; 0=no damage), read-out: Percentage damage caused to weed species, SETFA
[16] = post-emergence, 1,000 g/ha, evaluated after 13 days (100=total damage; 0=no damage), read-out: Percentage damage caused to weed species, SOLNI
[17] = post-emergence, 1,000 g/ha, evaluated after 13 days (100=total damage; 0=no damage), read-out: Percentage damage caused to weed species, ECHCG
[18] = post-emergence, 1,000 g/ha, evaluated after 13 days (100=total damage; 0=no damage), read-out: Percentage damage caused to weed species, IPOHE
[19] = pre-emergence, 1,000 g/ha, evaluated after 13 days (100=total damage; 0=no damage), read-out: Percentage damage AMARE
[20] = pre-emergence, 1,000 g/ha, evaluated after 13 days (100=total damage; 0=no damage), read-out: Percentage damage ALOMY
[21] = pre-emergence, 1,000 g/ha, evaluated after 13 days (100=total damage; 0=no damage), read-out: Percentage damage SETFA
[22] = pre-emergence, 1,000 g/ha, evaluated after 13 days (100=total damage; 0=no damage), read-out: Percentage damage SOLNI
[23] = pre-emergence, 1,000 g/ha, evaluated after 13 days (100=total damage; 0=no damage), read-out: Percentage damage ECHCG
[24] = pre-emergence, 1,000 g/ha, evaluated after 13 days (100=total damage; 0=no damage), read-out: Percentage damage IPOHE

| Compound | pest or weed control at 1000 g/ha [1, 13] [%] | pest or weed control at 1000 g/ha [2, 14] [%] | pest or weed control at 1000 g/ha (Setaria faberi (SETFA) [3]; [15]) [%] | pest or weed control at 1000 g/ha (Solanum nigrum (SOLNI) [4]; [16]) [%] | pest or weed control at 1000 g/ha [5, 17] [%] | pest or weed control at 1000 g/ha [6, 18] [%] | pest or weed control at 1000 g/ha [7, 19] [%] | pest or weed control at 1000 g/ha [8, 20] [%] | pest or weed control at 1000 g/ha (Setaria faberi (SETFA) [9]; [21]) [%] | pest or weed control at 1000 g/ha (Solanum nigrum (SOLNI) [10]; [22]) [%] | pest or weed control at 1000 g/ha [11, 23] [%] | pest or weed control at 1000 g/ha [12, 24] [%] | also measured |
| --- | --- | --- | --- | --- | --- | --- | --- | --- | --- | --- | --- | --- | --- |
| COC(=O)c1nc(C2CC2)nc(NCc2ccccc2)c1Cl [Compound 4-60, 5-chloro-2-cyclopropyl-6-methoxycarbonyl-4-phenylmethylaminopyrimidine] | 100 | 20 | 90 | 100 | 90 | 100 | 60 | 0 | 30 | 50 | 0 | 60 |  |
| CCN(Cc1ccc(F)cc1)c1nc(C2CC2)nc(C(=O)OC)c1Cl [Compound 6-66, 5-Chloro-2-cyclopropyl-4-[N-ethyl-N-(4-fluorophenylmethyl)-amino]-6-methoxycarbonyl-pyrimidine] |  |  |  |  |  |  |  |  |  |  |  |  | pest or weed control at 1000 g/ha ([1]; Rate 1,000 g/ha, post-emergence spray, evaluated after 13 days (100=total damage to plant; 0=no damage to plant), read-out: Percentage damage caused to weed species, post-emergence, AMARE): 100%; pest or weed control at 1000 g/ha ([2]; Rate 1,000 g/ha, post-emergence spray, evaluated after 13 days (100=total damage to plant; 0=no damage to plant), read-out: Percentage damage caused to weed species, post-emergence, ALOMY): 40%; pest or weed control at 1000 g/ha (Setaria faberi (SETFA) [3]; Rate 1,000 g/ha, post-emergence spray, evaluated after 13 days (100=total damage to plant; 0=no damage to plant), read-out: Percentage damage caused to weed species, post-emergence, SETFA): 90%; pest or weed control at 1000 g/ha (Solanum nigrum (SOLNI) [4]; Rate 1,000 g/ha, post-emergence spray, evaluated after 13 days (100=total damage to plant; 0=no damage to plant), read-out: Percentage damage caused to weed species, post-emergence, SOLNI): 90%; pest or weed control at 1000 g/ha ([5]; Rate 1,000 g/ha, post-emergence spray, evaluated after 13 days (100=total damage to plant; 0=no damage to plant), read-out: Percentage damage caused to weed species, post-emergence, ECHCG): 60%; pest or weed control at 1000 g/ha ([6]; Rate 1,000 g/ha, post-emergence spray, evaluated after 13 days (100=total damage to plant; 0=no damage to plant), read-out: Percentage damage caused to weed species, post-emergence, IPOHE): 100%; pest or weed control at 1000 g/ha ([7]; pre-emergence, rate 1,000 g/ha, evaluated after 13 days (100=total damage to plant; 0=no damage), read-out: Percentage damage caused to weed species, AMARE): 50%; pest or weed control at 1000 g/ha ([8]; pre-emergence, rate 1,000 g/ha, evaluated after 13 days (100=total damage to plant; 0=no damage), read-out: Percentage damage caused to weed species, ALOMY): 20%; pest or weed control at 1000 g/ha (Setaria faberi (SETFA) [9]; pre-emergence, rate 1,000 g/ha, evaluated after 13 days (100=total damage to plant; 0=no damage), read-out: Percentage damage caused to weed species, SETFA): 10%; pest or weed control at 1000 g/ha (Solanum nigrum (SOLNI) [10]; pre-emergence, rate 1,000 g/ha, evaluated after 13 days (100=total damage to plant; 0=no damage), read-out: Percentage damage caused to weed species, SOLNI): 20%; pest or weed control at 1000 g/ha ([11]; pre-emergence, rate 1,000 g/ha, evaluated after 13 days (100=total damage to plant; 0=no damage), read-out: Percentage damage caused to weed species, ECHCG): 0%; pest or weed control at 1000 g/ha ([12]; pre-emergence, rate 1,000 g/ha, evaluated after 13 days (100=total damage to plant; 0=no damage), read-out: Percentage damage caused to weed species, IPOHE): 80% |
| COC(=O)c1nc(C2CC2)nc(NCc2ncc(C(F)(F)F)cc2Cl)c1Cl [Compound 4-155, 5-Chloro-4-(3-chloro-5-trifluoromethylpyrid-2-ylmethylamino)-2-cyclopropyl-6-methoxycarbonyl-pyrimidine] | 100 | 30 | 70 | 90 | 70 | 90 | 90 | 20 | 20 | 70 | 80 | 90 |  |
| COC(=O)c1nc(C2CC2)nc(NCCCn2ccnc2)c1Cl [Compound 4-250, 5-Chloro-2-cyclopropyl-4-[3-(imidazol-1-yl)propylamino]-6-methoxycarbonyl-pyrimidine] | 100 | 0 | 50 | 70 | 30 | 100 | 90 | 0 | 0 | 40 | 0 | 80 |  |
| COC(=O)c1nc(C2CC2)nc(NC2(/C=C/c3ccc(F)cc3)CC2)c1Cl [Compound 4-20, 5-Chloro-2-cyclopropyl-4-{1-[2-(4-fluorophenyl)-ethenyl]-cyclo-propylamino}-6-methoxycarbonyl-pyrimidine] | 100 | 20 | 70 | 80 | 50 | 100 | 50 | 0 | 0 | 20 | 0 | 50 |  |
| C=CC(Nc1nc(C2CC2)nc(C(=O)OC)c1Cl)c1ccccc1 (stereo not drawn) [Compound 4-197, 5-Chloro-2-cyclopropyl-6-methoxycarbonyl-4-(1-phenylprop-2-en-1-yl-amino)-pyrimidine] | 100 | 40 | 80 | 90 | 70 | 100 | 90 | 20 | 20 | 90 | 40 | 100 |  |
